Data: patent publication US5552444A, “Ring-substituted 2-amino-1,2,3,4-tetra-hydronaphthalenes, 3-aminochromanes, and 3-aminothiochromanes” (Eli Lilly and Company, priority 1995, dated 1996)
Counter-ions that a name gives are not always drawn.

molecular target: T1, 5-HT1A receptor (Rattus norvegicus, UniProt P19327); experiment: Inhibition of 3H-8-OH-DPAT binding to rat cerebral cortex synaptosomal membranes (binding at 5HT1a in vitro); design: species or system rat (male Sprague-Dawley); details: not given
T1 construct: synaptosomal membranes isolated from cerebral cortex; from tissue; host or cells: rat cerebral cortex, crude synaptosomal membranes (male Sprague-Dawley rats, Harlan Industries)
T1 sequence (P19327 1-422): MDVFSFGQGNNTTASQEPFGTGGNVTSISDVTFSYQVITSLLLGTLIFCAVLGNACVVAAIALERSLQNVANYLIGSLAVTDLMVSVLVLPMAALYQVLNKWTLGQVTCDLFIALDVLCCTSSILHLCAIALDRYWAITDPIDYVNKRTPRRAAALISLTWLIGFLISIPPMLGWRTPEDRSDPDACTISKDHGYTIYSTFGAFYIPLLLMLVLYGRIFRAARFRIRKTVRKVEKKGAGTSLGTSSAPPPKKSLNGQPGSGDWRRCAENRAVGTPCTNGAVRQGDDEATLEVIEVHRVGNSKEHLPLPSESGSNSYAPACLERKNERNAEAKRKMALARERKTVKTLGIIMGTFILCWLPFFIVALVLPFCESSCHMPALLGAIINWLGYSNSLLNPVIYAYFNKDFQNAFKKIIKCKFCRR
Description: This general procedure is set forth in Wong et al., J. Neural Transm. 71:207-218 (1988).
Male Sprague-Dawley rats (110-150 g) from Harlan Industries (Cumberland, Ind.) were fed a Purina Chow ad libitum for at least 3 days before being used in the studies. Rats were killed by decapitation. The brains were rapidly removed, and the cerebral cortices were dissected out at 4° C.
Brain tissues were homogenized in 0.32M sucrose. After centrifugation at 1000×g for 10 min and then at 17000×g for 20 min, a crude synaptosomal fraction was sedimented. The pellet was suspended in 100 vol of 50 mM Tris-HCl, pH 7.4, incubated at 37° C. for 10 min, and centrifuged at 50000×g for 10 min. The process was repeated and the final pellet was suspended in ice-chilled 50 mM Tris-HCl, pH 7.4. By the radioligand binding method, sites specifically labeled by tritiated 8-hydroxy-2-dipropylamino-1,2,3,4-tetrahydronaphthalene (^3 H-8-OH-DPAT) have been identified as 5-HT1A receptors.
Binding of (^3 H-8-OH-DPAT) was performed according to the previously described method [Wong et al., J. Neural Transm. 64:251-269 (1985)]. Briefly, synaptosomal membranes isolated from cerebral cortex were incubated at 37° C. for 10 min. in 2 ml of 50 mM Tris-HCl, pH 7.4; 10 μM pargyline; 0.6 mM ascorbic acid; 0.4 nM ^3 H-8-OH-DPAT; and from 1 to 1000 nM of test compound. Binding was terminated by filtering samples under reduced pressure through glass fiber (GFB) filters. The filters were washed twice with 5 ml of ice cold buffer and placed in scintillation vials with 10 ml of PCS (Amersham/Searle) scintillation fluid. Radioactivity was measured with a liquid scintillation spectrometer. Unlabeled 8-OH-DPAT at 10 μM was also included in separate samples to establish non-specific binding. Specific binding of ^3 H-8-OH-DPAT is defined as the difference of radioactivity bound in the absence and in the presence of 10 μM unlabeled 8-OH-DPAT.

| Structure (SMILES) | IC50 [nM] |
| --- | --- |
| CCCN(CCC)C1CCc2cccc(C(=O)C(C)(C)C)c2C1 (stereo not drawn) [Example 7, 2-Di-n-propylamino-8-dimethylpropionyl-1,2,3,4-tetrahydronaphthalene, hydrobromide salt] | 9 |

same assay, conditions: rat cerebral cortex membranes; 0.4 nM 3H-8-OH-DPAT; 37° C., 10 min; pH 7.4; read-out: IC50, concentration of test compound required to inhibit the binding of 3H-8-OH-DPAT by 50%

| Structure (SMILES) | IC50 [nM] |
| --- | --- |
| CCCCC(=O)c1cccc2c1CC(N(CCC)CCC)CC2 (stereo not drawn) [Example 1, 2-Di-n-propylamino-8-pentanoyl-1,2,3,4-tetrahydronaphthalene, oxalate salt] | 2.2 |
| CCCN(CCC)C1CCc2cccc(C(=O)C(F)(F)F)c2C1 (stereo not drawn) [Example 2, 2-Di-n-propylamino-8-trifluoroacetyl-1,2,3,4-tetrahydronaphthalene, hydrobromide salt] | 29 |
| CCCN(CCC)C1CCc2cccc(C(=O)CC)c2C1 (stereo not drawn) [Example 3, 2-Di-n-propylamino-8-propionyl-1,2,3,4-tetrahydronaphthalene, oxalate salt] | 0.8 |
| CCCC(=O)c1cccc2c1CC(N(CCC)CCC)CC2 (stereo not drawn) [Example 4, 2-Di-n-propylamino-8-butanoyl-1,2,3,4-tetrahydronaphthalene,hydrobromide salt] | 3 |
| CCCN(CCC)C1CCc2cccc(C(=O)C(C)C)c2C1 (stereo not drawn) [Example 5, 2-Di-n-propylamino-8-(α-methylpropionyl)-1,2,3,4-tetrahydronaphthalene, hydrobromide salt] | 0.4 |
| CCCN(CCC)C1CCc2cccc(C(=O)CC(C)C)c2C1 (stereo not drawn) [Example 6, 2-Di-n-propylamino-8-(β-methylbutyryl)-1,2,3,4-tetrahydronaphthalene,hydrobromide salt] | 0.4 |
| CCCN(CCC)C1CCc2cccc(C(=O)C3CCCCC3)c2C1 (stereo not drawn) [Example 8, 2-Di-n-propylamino-8-cyclohexanecarbonyl-1,2,3,4-tetrahydronaphthalene, oxalate salt] | 0.5 |
| CCCN(CCC)C1CCc2cccc(C(=O)c3ccccc3)c2C1 (stereo not drawn) [Example 9, 2-Di-n-propylamino-8-benzoyl-1,2,3,4-tetrahydronaphthalene, tosylate salt] | 3.7 |
| CCCN(CCC)C1CCc2cccc(C(=O)c3ccccc3F)c2C1 (stereo not drawn) [Example 11, 2-Di-n-propylamino-8-(o-fluorobenzoyl)-1,2,3,4-tetrahydronaphthalene, p-toluenesulfonic acid salt] | 0.8 |
| CCCN(CCC)C1CCc2cccc(C(=O)COC)c2C1 (stereo not drawn) [Example 12, 2-Di-n-propylamino-8-(methoxyacetyl)-1,2,3,4-tetrahydronaphthalene oxalate] | 5.8 |
| CCCN(CCC)C1CCc2cccc(C(C)=O)c2C1 (stereo not drawn) [Example 13, 2-Di-n-propylamino-8-acetyl-1,2,3,4-tetrahydronaphthalene] | 0.8 |
